Test results published in US20050282225A1, “Quantitative binding assays using green fluorescent protein as a label” (priority 1998, published 2005).
Where no end group is shown, it is not given here.

Tested on: anti-octapeptide M2 monoclonal antibody
Experiment: heterogeneous competitive immunoassay with immobilized M2 antibody and octapeptide-GFP conjugate, selectivity study
Format: binding
Settings: sequential incubation 25 min + 25 min, supernatant fluorescence (FIG. 10)
Experimental: A dose-response curve was constructed by incubating 200 μL of a solution of different concentrations of the octapeptide with 200 μL of a 140 μg/mL suspension of the immobilized antibody and 90 μL of 1.1×10^−8 M of octapeptide-GFP conjugate and 1.510 mL of PBS buffer.
The incubations were performed in a sequential manner. Initially, the octapeptide was incubated with the beads for 25 min. Then, the tubes were centrifuged at 2000×g for 15 min, the supernatant was removed, and the beads were washed three times with PBS. PBS (1.710 mL) and the octapeptide-GFP conjugate were added, and the mixture was incubated for an additional 25 min at room temperature. The beads were then centrifuged again as described, and 1.7 mL of the supernatant was transferred to plastic cuvettes for measurement of fluorescence emission at 508 nm. The selectivity of the assay was evaluated by constructing a dose-response curve for rev-octapeptide, an octapeptide with the amino acids of the octapeptide in the reverse order.

Compound | response in dose-response curve (displacement of octapeptide-GFP from M2 antibody)
KDDDDKYD [rev-octapeptide, octapeptide with the amino acids of the octapeptide in the reverse order] | essentially no response

Biological target: Avidin (Gallus gallus, UniProt P02701)
Experiment: not given
Settings: association (affinity) constant of the binding pair substance: Avidin; cited from earlier work

Sequence of Avidin (P02701 25-152): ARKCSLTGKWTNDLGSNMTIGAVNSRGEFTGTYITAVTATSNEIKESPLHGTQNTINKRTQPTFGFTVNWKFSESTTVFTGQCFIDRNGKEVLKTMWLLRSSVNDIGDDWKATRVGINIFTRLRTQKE

Compound | Ka
O=C(O)CCCCC1SCC2NC(=S)NC21 (stereo not drawn) [2-thiobiotin] | 10^13 M^−1
COC(=O)CCCCC1SCC2NC(=O)N(C(=O)OC)C21 (stereo not drawn) [3′-N-methoxy-carbonylbiotin methyl ester] | 10^9 M^−1
O=C(O)CCCC[C@@H]1SC[C@@H]2NC(=O)N[C@@H]21 [Biotin] | 10^15 M^−1
C[C@@H]1NC(=O)N[C@@H]1CCCCCC(=O)O [Dethiobiotin] | 10^13 M^−1
N=C1N[C@H]2[C@H](CS[C@H]2CCCCC(=O)O)N1 [Iminobiotin] | 10^11 M^−1
